# Source: patent publication US5409947A, “Cycloheptimidazole derivatives, method of manufacturing the same and therapeutic agents containing these compounds” (Kotobuki Seiyaku Co., Ltd., priority 1992, dated 1995)
# Structures can show the parent of a compound that is named as a salt.
# Molecular target: T1, angiotensin II receptor (Oryctolagus cuniculus, UniProt P34976)
# T1 construct: Rabbit aorta thoracic is isolated; from tissue; host or cells: isolated rabbit thoracic aorta
# T1 sequence (P34976 1-359): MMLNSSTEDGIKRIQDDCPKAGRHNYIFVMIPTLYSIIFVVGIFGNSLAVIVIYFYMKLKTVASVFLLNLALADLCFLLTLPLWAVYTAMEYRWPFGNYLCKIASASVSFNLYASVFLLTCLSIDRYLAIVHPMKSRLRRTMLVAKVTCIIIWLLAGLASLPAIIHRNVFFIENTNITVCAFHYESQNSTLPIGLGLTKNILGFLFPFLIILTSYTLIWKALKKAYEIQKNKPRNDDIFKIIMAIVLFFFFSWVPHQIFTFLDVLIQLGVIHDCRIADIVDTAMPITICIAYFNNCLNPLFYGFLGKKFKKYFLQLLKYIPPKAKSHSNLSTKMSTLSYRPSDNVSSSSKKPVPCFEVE
# Experiment: Angiotensin II receptor antagonistic activity: inhibition of angiotensin II-induced contraction of isolated rabbit thoracic aorta
# Type: cell-based
# Conditions: isolated rabbit thoracic aorta contracted by angiotensin II; from dose-response curve (Schild)
# Text: Angiotensin II receptor antagonistic activity experiments are carded out according to P. C. Wong et al. (Hypertension. 15, 823 (1990)).
# Rabbit aorta thoracic is isolated, contracted by angiotensin II. The inhibition of contraction by the compound (1) is expressed as pA2 from dose-response curve (Schild, Brit. J. Pharmacol. 14, 48 (1959)).
row,pA2,Compound
1,7.95,"Cc1nc2ccccc(=O)c2n1Cc1ccc(-c2ccccc2-c2nn[nH]n2)cc1 [Compound 1, 5-[2-(4-(2-Methyl-8-oxo-1(8H)-cycloheptimidazolyl)methylbiphenylyl)]tetrazole]"

# Same assay, conditions: isolated rabbit thoracic aorta contracted by angiotensin II; from dose-response curve (Schild); read-out: pA2 (converted)
row,Kb [nM],Compound
1,0.316,CCCCc1nc2c(n1Cc1ccc(-c3ccccc3-c3nn[nH]n3)cc1)C(=O)CCCC2 [18 - K salt]
2,7.59,"CC(C)c1nc2ccccc(=O)c2n1Cc1ccc(-c2ccccc2-c2nn[nH]n2)cc1 [Compound 9, 5-[2-(4-(2-Isopropyl-8-oxo-1(8H)-cycloheptimidazolyl)methylbiphenylyl)]tetrazole]"
3,63.1,"CCCCc1nc2c(n1Cc1ccc(-c3ccccc3-c3nn[nH]n3)cc1)CCCCC2O (centres unmarked) [Compound 27, 5-[2-(4-(2-Butyl-4-hydroxy-1,4,5,6,7,8-hexahydro-1-cycloheptimidazolyl)methylbiphenylyl)]tetrazole]"
4,0.851,CC(C)Cc1nc2c(n1Cc1ccc(-c3ccccc3-c3nn[nH]n3)cc1)C(=O)CCCC2 [Compound 25]
5,5.01,"Cc1nc2c(n1Cc1ccc(-c3ccccc3-c3nn[nH]n3)cc1)C(=O)CCCC2 [Compound 15, 5-[2-(4-(2-Methyl-8-oxo-5,6,7,8-tetrahydro-1-cycloheptimidazolyl)methylbiphenylyl)]tetrazole]"
6,1.78,CC(C)c1nc2c(n1Cc1ccc(-c3ccccc3-c3nn[nH]n3)cc1)C(=O)CCCC2 [Compound 24]
7,63.1,"CCCCc1nc2c(n1Cc1ccc(-c3ccccc3-c3nn[nH]n3)cc1)CCCCC2=O [Compound 20, 5-[2-(4-(2-Butyl-4-oxo-5,6,7,8-tetrahydro-1-cycloheptimidazolyl)methylbiphenylyl)]tetrazole]"
8,0.331,"CCCc1nc2ccccc(=O)c2n1Cc1ccc(-c2ccccc2-c2nn[nH]n2)cc1 [Compound 3, 5-[2-(4-(2-Propyl-8-oxo-1(8H)-cycloheptimidazolyl)methylbiphenylyl)]tetrazole]"
9,20,"CCCCc1nc2c(n1Cc1ccc(-c3ccccc3-c3nn[nH]n3)cc1)CCCCC2 [Compound 11, 5-[2-(4-(2-Butyl-1,4,5,6,7,8-hexahydro-1-cycloheptimidazolyl)methylbiphenylyl)]tetrazole]"
10,0.126,"CCCc1nc2c(n1Cc1ccc(-c3ccccc3-c3nnn[nH]3)cc1)C(=O)CCCC2 [Compound 17, 5-[2-(4-(2-Propyl-8-oxo-5,6,7,8-tetrahydro-1-cycloheptimidazolyl)methylbiphenylyl)]tetrazole]"
11,1,"CCc1nc2c(n1Cc1ccc(-c3ccccc3-c3nn[nH]n3)cc1)C(=O)CCCC2 [Compound 16, 5-[2-(4-(2-Ethyl-8-oxo-5,6,7,8-tetrahydro-1-cycloheptimidazolyl)methylbiphenylyl)]tetrazole]"
12,9.77,"CCCCc1nc2c(n1Cc1ccc(-c3ccccc3-c3nn[nH]n3)cc1)C(O)CCCC2 (centres unmarked) [Compound 26, 5-[2-(4-(2-Butyl-8-hydroxy-1,4,5,6,7,8-hexahydro-1-cycloheptimidazolyl)methylbiphenylyl)]tetrazole]"
13,0.501,"CCCCc1nc2c(n1Cc1ccc(-c3ccccc3-c3nn[nH]n3)cc1)C(=O)CCCC2 [Compound 18, 5-[2-(4-(2-Butyl-8-oxo-5,6,7,8-tetrahydro-1-cycloheptimidazolyl)methylbiphenylyl)]tetrazole]"
14,0.501,"CCCCc1nc2ccccc(=O)c2n1Cc1ccc(-c2ccccc2-c2nn[nH]n2)cc1 [Compound 4, 5-[2-(4-(2-Butyl-8-oxo-1(8H )-cycloheptimidazolyl)methylbiphenylyl)]tetrazole]"
15,0.398,"CCCCCc1nc2c(n1Cc1ccc(-c3ccccc3-c3nn[nH]n3)cc1)C(=O)CCCC2 [Compound 19, 5-[2-(4-(2-Pentyl-8-oxo-5,6,7,8-tetrahydro-1-cycloheptimidazolyl)methylbiphenylyl)]tetrazole]"
16,2,"CCc1nc2ccccc(=O)c2n1Cc1ccc(-c2ccccc2-c2nn[nH]n2)cc1 [Compound 2, 5-[2-(4-(2-Ethyl-8-oxo-1(8H)-cycloheptimidazolyl)methylbiphenylyl)]tetrazole]"
